Laboratory results published in ChEMBL document CHEMBL3886540, “Orally available viridiofungin derivative possessing anti-HCV activity” (2016).

Experiments:
Cytochrome P450 3A4 [1] = biological target: T1, Cytochrome P450 3A4 (Homo sapiens, UniProt P08684); experiment: (§1) CYP Inhibition Assay (With Preincubation): With Preincubation: To a 96 deep well plate was added 2.5 uL of the test substance solution (x200 concentration), and 442.5 uL of Incubation Mixture, and the solution was mixed and warmed to 37° C. for 5 minutes. To this incubation solution 50 uL of 10 mM NADPH was added and preincubated at 37° C. for 30 minutes. […] After the reaction, 100 uL of the Incubation Mixture was removed, added to 150 uL of isopropanol containing IS and mixed. […] The filtrate was used for LC-MS/MS analysis.
Cytochrome P450 2C9 [2] = biological target: T2, Cytochrome P450 2C9 (Homo sapiens, UniProt P11712); experiment: as §1
Cytochrome P450 3A4 [3] = biological target: T1, Cytochrome P450 3A4; experiment: (§2) CYP Inhibition Assay (Without Preincubation): Without Preincubation: To a 96 deep well plate was added 2.5 uL, of the test substance solution (x200 concentration), 442.5 uL of Incubation Mixture, and 5 uL of the substrate solution, and the solution was mixed and warmed to 37° C. for 5 minutes. To this incubation solution 50 uL of 10 mM NADPH was added to start the reaction, and incubated at 37° C. for 5 minutes. After the incubation, 100 uL of the Incubation Mixture was removed, added to 150 uL of isopropanol containing IS and mixed. […] The filtrate was used for LC-MS/MS analysis.
Cytochrome P450 2C9 [4] = biological target: T2, Cytochrome P450 2C9; experiment: as §2

T1 sequence (P08684 whole entry): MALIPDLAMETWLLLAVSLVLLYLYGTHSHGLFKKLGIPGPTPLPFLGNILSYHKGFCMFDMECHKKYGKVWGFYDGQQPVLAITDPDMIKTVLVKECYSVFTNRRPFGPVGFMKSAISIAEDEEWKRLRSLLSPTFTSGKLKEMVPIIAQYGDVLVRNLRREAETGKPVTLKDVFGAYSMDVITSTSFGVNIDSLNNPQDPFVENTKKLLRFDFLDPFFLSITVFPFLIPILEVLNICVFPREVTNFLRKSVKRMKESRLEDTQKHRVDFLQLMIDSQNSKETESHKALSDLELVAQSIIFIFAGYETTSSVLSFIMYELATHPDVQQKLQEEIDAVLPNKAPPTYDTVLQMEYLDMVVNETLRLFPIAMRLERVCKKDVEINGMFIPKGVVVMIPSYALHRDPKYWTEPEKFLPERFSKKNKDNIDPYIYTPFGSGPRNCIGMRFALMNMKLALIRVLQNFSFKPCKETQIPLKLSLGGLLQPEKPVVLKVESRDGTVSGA
T2 sequence (P11712 whole entry): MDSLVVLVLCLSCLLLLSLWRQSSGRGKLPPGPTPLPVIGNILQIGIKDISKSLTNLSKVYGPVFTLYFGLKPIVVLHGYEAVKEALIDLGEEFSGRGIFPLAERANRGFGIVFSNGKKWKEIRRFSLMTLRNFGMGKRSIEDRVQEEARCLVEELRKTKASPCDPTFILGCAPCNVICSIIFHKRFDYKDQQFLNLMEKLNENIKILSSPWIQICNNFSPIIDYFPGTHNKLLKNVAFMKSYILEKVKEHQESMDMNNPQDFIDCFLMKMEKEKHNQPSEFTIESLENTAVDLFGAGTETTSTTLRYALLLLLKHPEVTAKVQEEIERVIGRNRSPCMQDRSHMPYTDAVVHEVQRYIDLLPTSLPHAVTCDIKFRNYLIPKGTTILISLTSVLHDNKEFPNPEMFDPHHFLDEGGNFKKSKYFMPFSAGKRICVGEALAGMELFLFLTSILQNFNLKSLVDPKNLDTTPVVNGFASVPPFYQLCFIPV

IC50 (Cytochrome P450 3A4 [1]) | IC50 (Cytochrome P450 2C9 [2]) | IC50 (Cytochrome P450 3A4 [3]) | IC50 (Cytochrome P450 2C9 [4]) | SMILES
11.9 µM | 19.6 µM | 23.8 µM | 7.7 µM | CCCCCCCC(F)(F)CCCCCC/C=C/[C@H](C(O)N[C@@H](Cc1ccc(OCCCC)cc1)C(=O)OC)[C@@](O)(CCOC)C(=O)O (stereo partly drawn)
11.8 µM | 24.4 µM | 16.2 µM | 12.5 µM | CCCCCCCC(F)(F)CCCCCC/C=C/[C@H](C(O)N[C@@H](Cc1ccc(OCCCC)cc1)C(=O)O)[C@@](O)(CCOC)C(=O)O (stereo partly drawn)
